From patent publication US10973748B2, “Compositions and methods for lightening skin and reducing hyperpigmentation” (Versitech Limited, priority 2016, dated 2021)

Legend:
Assay type in all cases: cell-based, murine
[1] = target: T1, tyrosinase (Mus musculus, UniProt P11344); assay: Cellular tyrosinase activity assay (L-DOPA oxidation in cell lysates); details: melan-a cells, α-MSH, 72 hrs; 6-CEPN 10 or 20 μM, 8-CEPQ 2.5 or 5 μM
T1 construct: endogenous in cells; host or cells: melan-a cells
T1 sequence (P11344 19-533): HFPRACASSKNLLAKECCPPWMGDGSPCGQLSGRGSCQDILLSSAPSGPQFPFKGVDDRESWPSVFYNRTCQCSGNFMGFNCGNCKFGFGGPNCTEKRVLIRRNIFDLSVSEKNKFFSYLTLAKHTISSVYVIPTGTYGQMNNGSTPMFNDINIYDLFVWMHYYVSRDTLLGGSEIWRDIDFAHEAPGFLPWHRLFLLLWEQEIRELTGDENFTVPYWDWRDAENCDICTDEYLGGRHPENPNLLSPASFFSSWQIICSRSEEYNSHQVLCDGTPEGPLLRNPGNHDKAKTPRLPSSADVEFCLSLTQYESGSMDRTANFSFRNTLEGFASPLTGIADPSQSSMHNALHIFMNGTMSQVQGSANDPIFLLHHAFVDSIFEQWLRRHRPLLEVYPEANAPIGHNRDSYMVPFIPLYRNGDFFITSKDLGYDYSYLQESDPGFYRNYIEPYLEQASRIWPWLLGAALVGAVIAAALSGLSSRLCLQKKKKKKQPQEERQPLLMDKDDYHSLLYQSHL
Method: Cellular tyrosinase activity was determined by measuring the oxidation of L-3,4-dihydroxyphenylalanine (L-DOPA) to dopachrome in cell lysates. Melan-a cells (1.5×10^5 cells/well) were plated in 1 mL of culture medium in a 24-well multidishes for at least 24 hrs prior to use. The cells were treated with α-MSH (1 μM) alone or with α-MSH plus different concentrations of testing agents for 72 hrs. The cells were washed with cold PBS and lysed in 900 μL of PBS with 1% Triton X-100. After being freeze-thawed at −80° C. for 30 min followed by 25° C. for 30 min, 100 μL of 10 mM L-DOPA was then added to each well. Following incubation at 37° C. for 1 hr, the absorbance of the agents was measured at 490 nm using Victor X4 Multilabel Plate Reader (PerkinElmer, Mass., USA).

[2] = tested on: melan-a cells; assay: Cell survival rate (CCK-8 assay); details: 72 hrs, concentration equal to or lower than 20 μM
Method: Murine melan-a cells (an immortalized, non-tumorigenic murine melanocyte cell line) were obtained from Chinese University of Hong Kong. Cells were cultured in RPMI 1640 medium. Culture medium was supplemented with 10% FBS and 1% penicillin-streptomycin and the cells were incubated at 37° C. in 5% CO2. Melan-a cells were incubated with tetradecanoyl phorbol acetate (TPA) at a concentration of 200 nM. The tested chemical agents (e.g., 6-CEPN and Kojic acid) were individually dissolved as a stock solution at a concentration of 100 mM in 100% dimethyl sulfoxide (DMSO). The stock solution was diluted using culture medium to the desired final concentrations immediately prior to use.
Melan-a cells (10,000 cells/well) were plated in 100 μL 96-well multidishes for at least 24 hours (hrs) prior to use. The cells were treated with serial concentrations of tested chemicals for 72 hrs. After the indicated incubation time, cells were washed three times using PBS and then treated with CCK-8 solution (0.5 mg/mL) for 1.5 hours. Absorbance was measured at 490 nm using Victor X4 Multilabel Plate Reader (PerkinElmer, Mass., USA). Values were expressed as the mean cell viability as a percentage of that of the vehicle DMSO (0.1% final volume)-treated cultures.

[3] = tested on: melan-a cells; assay: Melanosome autophagy by fluorescence microscopy; details: α-MSH, rapamycin 0.5 μM 24 hrs, 6-CEPN 10 μM, 8-CEPQ 5 μM 72 hrs
Method: Melan-a cells (1.5×10^5 cells/well) were seeded on coverslips in 6-well palte. The cells were treated with (1) α-MSH (1 μM) alone for 24 hrs, (2) α-MSH (1 μM) plus rapamycin (0.5 μM) for 24 hrs, (3) α-MSH (1 μM) plus 6-CEPN (10 μM), or (3) α-MSH (1 μM) plus 8-CEPQ (5 μM) for 72 hrs. Culture medium was removed carefully after the cells reached 50%˜70% level of confluence. Cells were stained by microscopy dual detection reagents (autophagy detection kit, Abcam) for 30 mins at 37° C. The stained cells were analyzed by wide-field fluorescence microscopy (60× magnification). Standard FITC filter and DAPI filter were set to image the autophagic signal and the nuclear signal, respectively.

[4] = tested on: tyrosinase; assay: Western blotting of tyrosinase protein level in melan-a cells; details: α-MSH, 72 hrs, 20 μM
Method: Melan-a cells (3×10^5 cells/well) were seeded in 4 mL of culture medium in a 6-well plate for at least 24 hrs prior to use. The cells were treated with α-MSH (1 μM) alone, α-MSH plus plus different concentration of agents for 72 hrs. The cells were washed with cold PBS and then lysed in 100 μL of RIPA buffer containing 1% Nonidet P-40, 0.1% sodium dodecylsulfate, 0.5% sodium deoxycholate, and 2% protease inhibitor at 4° C. Samples were centrifuged at 14,000 rpm for 30 mins at 4° C., and total proteins in the supernatant were separated. 10 μg of denatured proteins were loaded per lane, and separated by 10% SDS-PAGE gel. Proteins were then transferred to Immobilon-P Transfer Membranes (Millipore Co., Bed-ford, Mass.) by semidry transfer. Membranes were incubated with primary antibodies specific for Tyrosinase, tyrosinase-related protein-1 (TRP1), tyrosinase-related protein-2 (TRP2), and microphthalmia-associated transcription factor (MITF). The blots were subsequently washed and incubated with the appropriate secondary antibodies. Immunoreactive protein bands were visualized with enhanced chemiluminescence western blotting detection reagents and quantified using an ODYSSEY Fc Imaging system. The amounts of protein loaded were normalized against a control protein, β-actin.

O=C1C[C@@H](c2ccc(O)cc2)Oc2cc(O)c(/C=C/c3ccccc3)c(O)c21 [6-CEPN, 6-C-(E-phenylethenyl)-naringenin]
tyrosinase activity [1]: significant inhibition on tyrosinase activity in a dose-dependent manner
cell survival rate [2]: no significant decrease
melanosome autophagy [3]: induced melanosome autophagy
protein level of tyrosinase [4]: significantly suppressed
